From ChEMBL document CHEMBL1126830, “Cholecystokinin peptidomimetics as selective CCK-B antagonists: design, synthesis, and in vitro and in vivo biochemical properties” (J Med Chem, 1993)
pKi: −log10 of the molar value.

Columns and labels:
[1] = biological target: T1, Cholecystokinin receptor type A (Cavia porcellus, UniProt Q63931); assay: Tested for inhibition of [3H]-pCCK-8 specific binding to cholecystokinin type A receptor in guinea pig pancreatic membranes; format: cell membranes
T1 sequence (Q63931 whole entry): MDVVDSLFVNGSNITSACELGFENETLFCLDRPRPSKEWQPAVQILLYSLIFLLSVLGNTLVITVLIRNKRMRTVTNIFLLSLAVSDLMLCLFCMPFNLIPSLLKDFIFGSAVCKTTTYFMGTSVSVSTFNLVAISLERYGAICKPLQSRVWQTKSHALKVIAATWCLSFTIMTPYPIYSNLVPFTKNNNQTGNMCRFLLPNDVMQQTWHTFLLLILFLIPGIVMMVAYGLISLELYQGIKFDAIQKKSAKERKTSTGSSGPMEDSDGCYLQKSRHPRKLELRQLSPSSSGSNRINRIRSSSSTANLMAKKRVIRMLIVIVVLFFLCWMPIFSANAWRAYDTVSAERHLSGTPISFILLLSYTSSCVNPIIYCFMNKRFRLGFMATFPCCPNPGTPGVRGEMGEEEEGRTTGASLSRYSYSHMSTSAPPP

[2] = biological target: T2, Cholecystokinin receptor type A (Rattus norvegicus, UniProt P30551); assay: Tested for binding affinity towards cholecystokinin type A receptor in rat pancreas by displacement of [3H]pCCK-8 radioligand
T2 sequence (P30551 whole entry): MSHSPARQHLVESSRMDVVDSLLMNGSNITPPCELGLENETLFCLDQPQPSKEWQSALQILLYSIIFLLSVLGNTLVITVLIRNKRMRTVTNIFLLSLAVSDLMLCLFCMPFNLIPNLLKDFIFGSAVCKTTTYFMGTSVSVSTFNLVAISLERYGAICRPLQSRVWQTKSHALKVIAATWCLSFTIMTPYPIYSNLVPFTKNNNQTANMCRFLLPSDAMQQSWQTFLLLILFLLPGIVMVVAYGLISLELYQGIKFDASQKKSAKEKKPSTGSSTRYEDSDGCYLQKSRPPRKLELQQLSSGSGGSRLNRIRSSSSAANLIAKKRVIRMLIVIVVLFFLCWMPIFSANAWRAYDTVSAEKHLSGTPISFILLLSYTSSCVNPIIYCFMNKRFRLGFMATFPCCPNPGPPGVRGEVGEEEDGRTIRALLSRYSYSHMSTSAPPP

[3] = biological target: T3, Gastrin/cholecystokinin type B receptor (Rattus norvegicus, UniProt P30553); assay: Tested for binding affinity towards cholecystokinin type B receptor in rat […] by displacement of [3H]pCCK-8 radioligand
T3 sequence (P30553 whole entry): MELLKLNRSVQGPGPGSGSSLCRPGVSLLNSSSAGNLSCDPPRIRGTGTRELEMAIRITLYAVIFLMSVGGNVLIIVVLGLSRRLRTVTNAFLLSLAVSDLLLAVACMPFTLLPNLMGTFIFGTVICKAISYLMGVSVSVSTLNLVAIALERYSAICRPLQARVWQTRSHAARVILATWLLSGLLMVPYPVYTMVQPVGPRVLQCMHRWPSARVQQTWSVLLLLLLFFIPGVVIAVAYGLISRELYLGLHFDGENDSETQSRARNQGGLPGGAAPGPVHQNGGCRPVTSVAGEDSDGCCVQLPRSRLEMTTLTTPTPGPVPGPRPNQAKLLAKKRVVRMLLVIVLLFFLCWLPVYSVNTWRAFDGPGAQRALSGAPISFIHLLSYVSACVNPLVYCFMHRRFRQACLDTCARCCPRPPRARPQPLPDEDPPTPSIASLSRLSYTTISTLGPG

[4] = biological target: T4, Gastrin/cholecystokinin type B receptor (Mus musculus, UniProt P56481); assay: Tested for binding affinity towards cholecystokinin type B receptor in mouse brain by displacement of [3H]pBC264 radioligand (icv); format: tissue-based
T4 sequence (P56481 whole entry): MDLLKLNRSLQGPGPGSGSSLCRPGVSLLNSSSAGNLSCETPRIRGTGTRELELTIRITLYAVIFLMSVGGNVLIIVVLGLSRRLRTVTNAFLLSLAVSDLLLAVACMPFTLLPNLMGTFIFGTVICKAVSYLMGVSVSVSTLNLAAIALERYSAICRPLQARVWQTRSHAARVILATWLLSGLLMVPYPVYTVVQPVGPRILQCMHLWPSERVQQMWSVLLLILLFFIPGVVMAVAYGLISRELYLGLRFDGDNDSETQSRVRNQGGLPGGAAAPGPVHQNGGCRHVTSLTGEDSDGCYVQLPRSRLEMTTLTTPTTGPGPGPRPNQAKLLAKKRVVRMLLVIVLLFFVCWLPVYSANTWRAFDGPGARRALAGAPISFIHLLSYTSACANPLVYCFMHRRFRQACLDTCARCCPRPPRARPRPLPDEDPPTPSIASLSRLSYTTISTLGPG

pKi [1] | SMILES | further results
5.75 | CC(Cc1c[nH]c2ccccc12)(NC(=O)NC(c1ccccc1)(c1ccccc1)c1ccccc1)C(=O)NCCc1ccccc1 (stereo not drawn) | 
5.72 | CC(Cc1c[nH]c2ccccc12)(NC(=O)OC1[C@H]2C[C@@H]3C[C@@H](C[C@H]1C3)C2)C(=O)NCCc1ccccc1 (stereo partly drawn) | 
5.81 | CC(Cc1c[nH]c2ccccc12)(NC(=O)OC1[C@H]2C[C@@H]3C[C@@H](C[C@H]1C3)C2)C(=O)NCCc1ccc(Cl)c(Cl)c1 (stereo partly drawn) | 
5.82 | CC(Cc1c[nH]c2ccccc12)(NC(=O)OC1[C@H]2C[C@@H]3C[C@@H](C[C@H]1C3)C2)C(=O)N(CCc1ccccc1)CC(=O)O (stereo partly drawn) | pKi [2]: 6.27
5.22 | CC(Cc1c[nH]c2ccccc12)(NC(=O)OC1[C@H]2C[C@@H]3C[C@@H](C[C@H]1C3)C2)C(=O)Nc1ccccc1 (stereo partly drawn) | 
5.52 | CC(Cc1c[nH]c2ccccc12)(C(=O)OC1[C@H]2C[C@@H]3C[C@@H](C[C@H]1C3)C2)C(=O)N(CCc1ccc(Cl)cc1Cl)CC(=O)O (stereo partly drawn) | pKi [3]: 7.55; pKi [2]: 5.91; pKi [4]: 7.85
5.42 | CC(Cc1ccccc1)(NC(=O)OC1[C@H]2C[C@@H]3C[C@@H](C[C@H]1C3)C2)C(=O)N(CCc1ccccc1)CC(=O)O (stereo partly drawn) | 
5.20 | CC(Cc1c[nH]c2ccccc12)(NC(=O)Nc1ccc(Cl)cc1)C(=O)NCCc1ccccc1 (stereo not drawn) | 
5.50 | CC(Cc1c[nH]c2ccccc12)(NC(=O)OC1[C@H]2C[C@@H]3C[C@@H](C[C@H]1C3)C2)C(=O)NCCc1ccc(Cl)cc1Cl (stereo partly drawn) | 
5.98 | CC(Cc1c[nH]c2ccccc12)(NC(=O)OC1[C@H]2C[C@@H]3C[C@@H](C[C@H]1C3)C2)C(=O)N(CCc1ccc(Cl)cc1Cl)CC(=O)O (stereo partly drawn) | 
5.47 | CC(Cc1ccc(Br)cc1)(NC(=O)OC1[C@H]2C[C@@H]3C[C@@H](C[C@H]1C3)C2)C(=O)N(CCc1ccccc1)CC(=O)O (stereo partly drawn) | 
5.63 | CC(Cc1c[nH]c2ccccc12)(NC(=O)OC1[C@H]2C[C@@H]3C[C@@H](C[C@H]1C3)C2)C(=O)NCCc1ccc([N+](=O)[O-])cc1 (stereo partly drawn) | 
5.51 | COc1ccc(CCNC(=O)C(C)(Cc2c[nH]c3ccccc23)NC(=O)OC2[C@H]3C[C@@H]4C[C@@H](C[C@H]2C4)C3)cc1 (stereo partly drawn) | 
5.88 | CC(Cc1c[nH]c2ccccc12)(NC(=O)OC1[C@H]2C[C@@H]3C[C@@H](C[C@H]1C3)C2)C(=O)N(CCC(=O)O)CCc1ccccc1 (stereo partly drawn) | 
5.67 | CC(Cc1c[nH]c2ccccc12)(NC(=O)OC1[C@H]2C[C@@H]3C[C@@H](C[C@H]1C3)C2)C(=O)NCCc1ccc(Br)cc1 (stereo partly drawn) | 
5.79 | CC(Cc1c[nH]c2ccccc12)(NC(=O)OC1[C@H]2C[C@@H]3C[C@@H](C[C@H]1C3)C2)C(=O)NCCc1ccc(Cl)cc1 (stereo partly drawn) | 
5.63 | CC(Cc1c[nH]c2ccccc12)(NC(=O)OC1[C@H]2C[C@@H]3C[C@@H](C[C@H]1C3)C2)C(=O)NCCc1cccc2ccccc12 (stereo partly drawn) | 
5.55 | O=C(O)CN(CCc1ccccc1)C(=O)C(Cc1c[nH]c2ccccc12)NC(=O)OC1[C@H]2C[C@@H]3C[C@@H](C[C@H]1C3)C2 (stereo partly drawn) | 
5.63 | CC(Cc1c[nH]c2ccccc12)(NC(=O)OC1[C@H]2C[C@@H]3C[C@@H](C[C@H]1C3)C2)C(=O)Nc1ccc2ccccc2c1 (stereo partly drawn) | 
5.37 | CC(Cc1c[nH]c2ccccc12)(NC(=O)OC1[C@H]2C[C@@H]3C[C@@H](C[C@H]1C3)C2)C(=O)NCCCc1ccccc1 (stereo partly drawn) | 
< 5.40 | CC(Cc1c[nH]c2ccccc12)(NC(=O)OC1[C@H]2C[C@@H]3C[C@@H](C[C@H]1C3)C2)C(=O)NCC(=O)O (stereo partly drawn) | 
5.70 | CC(Cc1cccc2ccccc12)(NC(=O)OC1[C@H]2C[C@@H]3C[C@@H](C[C@H]1C3)C2)C(=O)N(CCc1ccccc1)CC(=O)O (stereo partly drawn) | 
6.11 | CC(Cc1c[nH]c2ccccc12)(NC(=O)Nc1ccc2ccccc2c1)C(=O)NCCc1ccccc1 (stereo not drawn) | 
5.39 | CC(Cc1c[nH]c2ccccc12)(NC(=O)OC1[C@H]2C[C@@H]3C[C@@H](C[C@H]1C3)C2)C(=O)NCc1ccccc1 (stereo partly drawn) | 
7.15 | CC(Cc1ccc2ccccc2c1)(NC(=O)OC1[C@H]2C[C@@H]3C[C@@H](C[C@H]1C3)C2)C(=O)N(CCc1ccccc1)CC(=O)O (stereo partly drawn) | 
5.95 | CC(Cc1c[nH]c2ccccc12)(NC(=O)OC1[C@H]2C[C@@H]3C[C@@H](C[C@H]1C3)C2)C(=O)N(CCc1ccc(Cl)cc1)CC(=O)O (stereo in doubt; 26) | pKi [2]: 5.87
5.97 | CC(Cc1c[nH]c2ccccc12)(NC(=O)OC1[C@H]2C[C@@H]3C[C@@H](C[C@H]1C3)C2)C(=O)N(CCc1ccc(Cl)cc1)CC(=O)O (stereo in doubt; 26A) | pKi [2]: 5.91
